Data reported in paper PMC9340777 (Journal of Medicinal Chemistry, 2022).

Legend:
[1] = physchem; conditions: buffer, pH 6.5
[2] = physchem; conditions: buffer
[3] = Han Wistar, rat, pH 6.8
[4] = in vitro; conditions: male, Wistar Han, rat, tissue homogenate, pH 6.8
[5] = in vitro; conditions: rat, pH 7.2, rat blood T1/2 (h) pH 7.2
[6] = rat, in vivo
[7] = pH 6.5

SMILES | half-life [1] [h] | half-life ([2]; pH 6.5) [h] | half-life ([2]; pH 7.4) [h] | half-life [4] [h] | other results
CC(OC(=O)CCCCN)OC(=O)N1CCC(OC(=O)C(O)(c2ccccc2)c2ccccc2)CC1.Cl (stereo not drawn) [Compound 6, 1-((5-Aminopentanoyl)oxy)ethyl-4-(2-hydroxy-2,2-diphenylacetoxy)piperidine-1-carboxylate Hydrochloride] | < 0.01 |  |  |  | 
CC(OC(=O)[C@@H]1CCCN1)OC(=O)N1CCC(OC(=O)C(O)(c2ccccc2)c2ccccc2)CC1.Cl (stereo partly drawn) [Compound 9, 1-((L-Prolyl)oxy)ethyl-4-(2-hydroxy-2,2-diphenylacetoxy)piperidine-1-carboxylate Hydrochloride] | 0.14 |  |  |  | 
CC(C)C[C@H](N)C(=O)OC(C)OC(=O)N1CCC(OC(=O)C(O)(c2ccccc2)c2ccccc2)CC1.Cl (stereo partly drawn) [Compound 13, 1-((L-Leucyl)oxy)ethyl-4-(2-hydroxy-2,2-diphenylacetoxy)piperidine-1-carboxylate Hydrochloride] | 5.09 |  |  |  | 
CC(OC(=O)[C@@H](N)C(C)C)OC(=O)N1CCC(OC(=O)C(O)(c2ccccc2)c2ccccc2)CC1.Cl (stereo partly drawn) [Compound 14, 1-((L-Valyl)oxy)ethyl-4-(2-hydroxy-2,2-diphenylacetoxy)piperidine-1-carboxylate Hydrochloride] | 15.8 |  |  |  | 
CC(OC(=O)[C@@H](N)C(C)(C)C)OC(=O)N1CCC(OC(=O)C(O)(c2ccccc2)c2ccccc2)CC1.Cl (stereo partly drawn) [Compound 15, 1-(((S)-2-Amino-3,3-dimethylbutanoyl)oxy)ethyl-4-(2-hydroxy-2,2-diphenylacetoxy)piperidine-1-carboxylate Hydrochloride] | 12.2 |  |  |  | 
CC[C@H](C)[C@H](N)C(=O)OC(C)OC(=O)N1CCC(OC(=O)C(O)(c2ccccc2)c2ccccc2)CC1.Cl (stereo partly drawn) [Compound 16, 1-((L-Isoleucyl)oxy)ethyl-4-(2-hydroxy-2,2-diphenylacetoxy)piperidine-1-carboxylate Hydrochloride] | 13.9 |  |  |  | 
CC(OC(=O)[C@@H](N)CCCCN)OC(=O)N1CCC(OC(=O)C(O)(c2ccccc2)c2ccccc2)CC1.Cl.Cl (stereo partly drawn) [Compound 17, 1-((L-Lysyl)oxy)ethyl-4-(2-hydroxy-2,2-diphenylacetoxy)piperidine-1-carboxylate Dihydrochloride] |  | 3.9 ± 0.05 | 1.1 ± 0.02 |  | 
CC(OC(=O)[C@@H](NC(=O)[C@@H](N)CCCCN)C(C)(C)C)OC(=O)N1CCC(OC(=O)C(O)(c2ccccc2)c2ccccc2)CC1.Cl.Cl (stereo partly drawn) [Compound 22, 1-(((S)-2-((S)-2,6-Diaminohexanamido)-3,3-dimethylbutanoyl)oxy)ethyl-4-(2-hydroxy-2,2-diphenylacetoxy)piperidine-1-carboxylate Dihydrochloride] |  | 186 ± 0.79 | 67 ± 0.23 | 2.5 ± 0.07 | rat blood T1/2 (h) pH 7.2: 0.1 ± 0.01 h; formation of monobasic intermediate (peptide amide bond hydrolysis) [3]: clearly showing the intermediate 15; half-life [5]: 0.2 h
CC(OC(=O)[C@H](NC(=O)[C@@H](N)CCCCN)C(C)(C)C)OC(=O)N1CCC(OC(=O)C(O)(c2ccccc2)c2ccccc2)CC1.Cl.Cl (stereo partly drawn) [Compound 23, 1-(((R)-2-((S)-2,6-Diaminohexanamido)-3,3-dimethylbutanoyl)oxy)ethyl-4-(2-hydroxy-2,2-diphenylacetoxy)piperidine-1-carboxylate Dihydrochloride] |  | 58.6 ± 4.91 | 36.6 ± 1.7 | 25.4 ± 1.94 | 23 in lung as % of the total dose delivered (calculated mass balance) ([6]; male, Sprague Dawley): 54%; ratio of 23 to 1 in lung ([6]; male, Sprague Dawley): ~27:1; total lung concentration of 23 ([6]; male, Sprague Dawley, 0.2 mg/kg): 31.2 µM; plasma concentration of 23 in words ([6]; 0.2 mg/kg): only a very low concentration; formation of monobasic intermediate (peptide amide bond hydrolysis) [3]: no evidence of intermediate 18; appearance in dosing formulation [7]: clear solution; half-life [5]: 7 ± 0.82 h
CC(OC(=O)[C@@H](NC(=O)[C@@H](N)CCCCN)C(C)C)OC(=O)N1CCC(OC(=O)C(O)(c2ccccc2)c2ccccc2)CC1.Cl.Cl (stereo partly drawn) [Compound 25, 1-((L-Lysyl-L-valyl)oxy)ethyl-4-(2-hydroxy-2,2-diphenylacetoxy)piperidine-1-carboxylate Dihydrochloride] |  | 14.4 ± 1.68 | 4.4 ± 0.39 | 0.6 ± 0.09 | 
CC(OC(=O)[C@H](NC(=O)[C@@H](N)CCCCN)C(C)C)OC(=O)N1CCC(OC(=O)C(O)(c2ccccc2)c2ccccc2)CC1.Cl.Cl (stereo partly drawn) [Compound 26, 1-((L-Lysyl-D-valyl)oxy)ethyl-4-(2-hydroxy-2,2-diphenylacetoxy)piperidine-1-carboxylate Dihydrochloride] |  | 8.7 ± 1.06 | 1.8 ± 0.2 | 3.4 ± 0.08 | half-life [5]: 0.6 ± 0.07 h
CC[C@H](C)[C@H](N)C(=O)N[C@@H](CCCCN)C(=O)OC(C)OC(=O)N1CCC(OC(=O)C(O)(c2ccccc2)c2ccccc2)CC1.Cl.Cl (stereo partly drawn) [Compound 27, 1-((L-Isoleucyl-L-lysyl)oxy)ethyl-4-(2-hydroxy-2,2-diphenylacetoxy)piperidine-1-carboxylate Dihydrochloride] |  | 4.9 ± 0.06 | 0.9 ± 0.04 |  | 
CC(OC(=O)[C@H](CCCCN)NC(=O)CCN)OC(=O)N1CCC(OC(=O)C(O)(c2ccccc2)c2ccccc2)CC1.Cl.Cl (stereo partly drawn) [Compound 28, 1-(((3-Aminopropanoyl)-L-lysyl)oxy)ethyl-4-(2-hydroxy-2,2-diphenylacetoxy)piperidine-1-carboxylate Dihydrochloride] |  | 102 ± 3.86 | 11.5 ± 0.73 | 0.7 ± 0.21 | 
